Test system: Human fibroblasts
Experiment: Stimulation of collagen synthesis measured by incorporation of tritiated proline in fibroblast collagenic fractions
Assay type: cell-based
Conditions: 72 hours of treatment
Protocol: The stimulation of collagen synthesis by peptides of the present invention was evaluated by measuring the incorporation of tritiated proline in fibroblasts collagenic fractions. The assay was conducted as follows. Human fibroblasts (obtained from the human biopsy of a person) were seeded in 24-well plates at approximately 40,000 cells per well in 1 ml of culture medium. The culture medium contained DMEM (Invitrogen S.a.r.l., Cergy Pontoise, France) supplemented with 10% Fetal Calf Serum (FCS, Cambrex Bio Science Paris S.a.r.l., Emerainville, France), 1% Glutamax (Invitrogen S.a.r.l.), 4 μg/ml gentamicine (Invitrogen S.a.r.l.), and 2.5 μg/ml Fungizone (Invitrogen S.a.r.l.). Cells were placed at 37° C. under 5% CO2 in a humidified atmosphere for 72 hours.
The culture medium was the removed and replaced with 1 ml of either: (i) incubation medium alone (untreated control); (ii) incubation medium further containing 1 ng/ml TGFb1 (R&D Systems Europe, Lille, France) for use as a stimulated positive control; or (iii) incubation medium further containing one of the tested peptides at a concentration of 1 μg/ml or 10 μg/ml. The incubation medium contained DMEM supplemented with 2% FCS, 1% Glutamax, 4 μg/ml gentamicine, 2.5 μg/ml Fungizone, 50 μg/ml ascorbic acid, 50 μg/ml b-aminoproionitrile, and 3.4 μg/ml a ketoglutarate.
During the last 24 hours of incubation, five μCi of tritiated proline (L-2,3-3H proline, Amersham Biosciences Europe, Saclay, France) was also added to each well. Each condition (untreated control, positive control and tested peptide) was performed in triplicate. In order to normalize the results, the same experiment was performed in parallel, except that tritiated proline was omitted. At the end of the treatment, cells were counted with a coulter counter. After 72 hours of treatment, incubation medium (supernatants) were collected in 2 ml microtubes and frozen at −20° C.
In order to perform the collagen extraction, 1 ml of cold 20% TCA (Sigma-Aldrich, Lyon, France) was added to 1 ml of supernatant. The samples were then vortexed, incubated for 5 minutes (min) at −20° C., and let stand on ice for 30 min. The samples were then centrifuged (2300 g, 5 min, 4° C.). The supernatants were then eliminated, and the pellets were rinsed with 1 ml of cold 5% TCA, vortexed, and centrifuged (2300 g, 5 min, 4° C.). The pellets were then rinsed twice with 5% TCA following the same procedure as described above. The pellets were then dissolved in 0.3 ml of 0.05 N NaOH and neutralized with 0.1N HCl to reach pH 6-8. Then, 0.2 ml of protein solution was incubated for 2 hours at 37° C. in 2×Tris HCl Buffer containing 10 units of collagenase activity (Clostridium hystolyticum Type III collagenase, Sigma-Aldrich, Lyon, France).
The enzymatic reaction was then stopped by precipitation with 500 μl of 15% TCA and 500 μl of 0.75% tannic acid. Samples were then incubated 30 min on ice. The precipitates were then centrifuged (2300 g, 5 min, 4° C.). The supernatants containing collagen fractions were collected, and scintillation liquid (Ecolume ICN) was added to each sample (5 ml to 100 μl sample). Then, radioactivity was measured in a β-scintillation counter.
The rate of collagen synthesis was calculated as follows: Synthesis rate=(number of dpm/cell number)*1000
The percentage of stimulation was calculated as follows: % of stimulation=[(synthesis rate in sample-synthesis rate in control)/(synthesis rate in control)]*100.

[1] = peptide at 1 ug/ml in incubation medium
[2] = peptide at 10 ug/ml in incubation medium

| Substance | Percent stimulation vs. control [1] [%] | Percent stimulation vs. control (peptide at 1 ug/ml in incubation medium, listed as TRNDKL) [%] | Percent stimulation vs. control [2] [%] | Percent stimulation vs. control (peptide at 10 ug/ml in incubation medium, listed as TRNDKL) [%] | Percent stimulation vs. control (peptide at 1 ug/ml in incubation medium, listed as VFTRN) [%] | Percent stimulation vs. control (peptide at 10 ug/ml in incubation medium, listed as VFTRN) [%] | Percent stimulation vs. control (1 ng/ml in incubation medium, positive control) [%] | Percent stimulation vs. control (1 ng/ml in incubation medium, positive control, listed as TGFb) [%] |
| --- | --- | --- | --- | --- | --- | --- | --- | --- |
| H2-Thr-Arg-Asn-Asp-Lys-Leu-OH (H-TRNDKL-OH) [Peptide 2] | 23.5 | 25 | 42.6 | 42 |  |  |  |  |
| H2-Val-Arg-Phe-Thr-Arg-Asn-OH (H-VRFTRN-OH) [Peptide 1] | 14.8 |  | 43.1 |  | 15 | 43 |  |  |
| TGF b: potent stimulator of collagen synthesis in dermal fibroblast used as positive control [reference compound] |  |  |  |  |  |  | 45.7 | 45 |

Reference: patent US20100093637A1, “PEPTIDES AND USE THEREOF” (priority 2005, published 2010)
